Data as given in patent publication US7638631B2, “Methylene dipiperidine derivatives” (Glaxo Group Limited, priority 2004, dated 2009).

Assays:
histamine H3 receptor [1] = target: T1, histamine H3 receptor (Homo sapiens, UniProt Q9Y5N1); test: Histamine H3 functional antagonist assay (method A), [35S]-GTPγS SPA on membranes; type: biochemical; conditions: membrane from cultured H3 cells, histamine at EC80, averages of a number of experiments, read-out: functional pKi (fpKi), histamine H3 functional antagonist assay (method A) (converted)
T1 construct: expressed in transfected cells; host or cells: CHO K1 cells carrying pSwitch, transfected with pGeneH3, mifepristone-induced; clone 3H3; membranes
T1 sequence (Q9Y5N1 whole entry): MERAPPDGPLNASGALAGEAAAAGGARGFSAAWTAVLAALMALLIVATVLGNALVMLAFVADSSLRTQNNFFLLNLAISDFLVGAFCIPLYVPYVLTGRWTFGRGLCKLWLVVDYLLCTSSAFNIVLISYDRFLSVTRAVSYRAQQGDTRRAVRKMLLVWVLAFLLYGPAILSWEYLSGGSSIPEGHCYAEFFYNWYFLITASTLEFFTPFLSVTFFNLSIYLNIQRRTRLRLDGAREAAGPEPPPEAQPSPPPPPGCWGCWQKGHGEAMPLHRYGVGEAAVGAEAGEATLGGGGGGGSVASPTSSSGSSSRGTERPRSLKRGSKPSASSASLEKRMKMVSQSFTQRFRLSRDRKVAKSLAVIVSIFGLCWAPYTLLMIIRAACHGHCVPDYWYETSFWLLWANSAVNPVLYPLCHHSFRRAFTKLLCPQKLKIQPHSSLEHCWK
Source text: (§1) A membrane preparation containing histamine H3 receptors may be prepared in accordance with the following procedures:
(§2) DNA encoding the human histamine H3 gene (Huvar, A. et al. (1999) Mol. Pharmacol. 55(6), 1101-1107) was cloned into a holding vector, pCDNA3.1 TOPO (InVitrogen) and its cDNA was isolated from this vector by restriction digestion of plasmid DNA with the enzymes BamH1 and Not-1 and ligated into the inducible expression vector pGene (InVitrogen) digested with the same enzymes. The GeneSwitch™ system (a system where in transgene expression is switched off in the absence of an inducer and switched on in the presence of an inducer) was performed as described in U.S. Pat. Nos.: 5,364,791; 5,874,534; and 5,935,934. Ligated DNA was transformed into competent DH5α E. coli host bacterial cells and plated onto Luria Broth (LB) agar containing Zeocin™ (an antibiotic which allows the selection of cells expressing the sh ble gene which is present on pGene and pSwitch) at 50 μg ml^−1. Colonies containing the re-ligated plasmid were identified by restriction analysis. DNA for transfection into mammalian cells was prepared from 250 ml cultures of the host bacterium containing the pGeneH3 plasmid and isolated using a DNA preparation kit (Qiagen Midi-Prep) as per manufacturers guidelines (Qiagen). CHO K1 cells previously transfected with the pSwitch regulatory plasmid (InVitrogen) were seeded at 2×10e6 cells per T75 flask in Complete Medium, containing Hams F12 (GIBCOBRL, Life Technologies) medium supplemented with 10% v/v dialysed foetal bovine serum, L-glutamine, and hygromycin (100 μg ml^−1), 24 hours prior to use. Plasmid DNA was transfected into the cells using Lipofectamine plus according to the manufacturers guidelines (InVitrogen). 48 hours post transfection cells were placed into complete medium supplemented with 500 μg ml^−1 Zeocin™.
10-14 days post selection 10 nM Mifepristone (InVitrogen), was added to the culture medium to induce the expression of the receptor. 18 hours post induction cells were detached from the flask using ethylenediamine tetra-acetic acid (EDTA; 1:5000; InVitrogen), following several washes with phosphate buffered saline pH 7.4 and resuspended in Sorting Medium containing Minimum Essential Medium (MEM), without phenol red, and supplemented with Earles salts and 3% Foetal Clone II (Hyclone). […] Receptor bound antibody was detected by incubation of the cells for 60 minutes on ice with a goat anti rabbit antibody, conjugated with Alexa 488 fluorescence marker (Molecular Probes). Following two further washes with Sorting Medium, cells were filtered through a 50 μm Filcon™ (BD Biosciences) and then analysed on a FACS Vantage SE Flow Cytometer fitted with an Automatic Cell Deposition Unit. […]

histamine H3 receptor [2] = target: T1, histamine H3 receptor; test: Histamine H3 functional antagonist assay (method B), [35S]-GTPγS SPA on membranes; type: biochemical; conditions: membrane from cultured H3 cells, histamine at EC80, averages of a number of experiments, read-out: functional pKi (fpKi), histamine H3 functional antagonist assay (method B) (converted)
Source text: as §1, §2
10-14 days post selection 10 nM Mifepristone (InVitrogen), was added to the culture medium to induce the expression of the receptor. 18 hours post induction cells were detached from the flask using ethylenediamine tetra-acetic acid (EDTA; 1:5000; InVitrogen), following several washes with phosphate buffered saline pH 7.4 and resuspended in Sorting Medium containing Minimum Essential Medium (MEM), without phenol red, and supplemented with Earles salts and 3% Foetal Clone II (Hyclone). Approximately 1×10e7 cells were examined for receptor expression by staining with a rabbit polyclonal antibody, 4a, raised against the N-terminal domain of the histamine H3 receptor, incubated on ice for 60 minutes, followed by two washes in sorting medium. Receptor bound antibody was detected by incubation of the cells for 60 minutes on ice with a goat anti rabbit antibody, conjugated with Alexa 488 fluorescence marker (Molecular Probes). Following two further washes with Sorting Medium, cells were filtered through a 50 μm Filcon™ (BD Biosciences) and then analysed on a FACS Vantage SE Flow Cytometer fitted with an Automatic Cell Deposition Unit. Control cells were non-induced cells treated in a similar manner. Positively stained cells were sorted as single cells into 96-well plates, containing Complete Medium containing 500 μg ml^−1 Zeocin™ and allowed to expand before reanalysis for receptor expression via antibody and ligand binding studies. One clone, 3H3, was selected for membrane preparation.
All steps of the protocol are carried out at 4° C. and with pre-cooled reagents. The cell pellet is resuspended in 10 volumes of homogenisation buffer (50 mM N-2-hydroxyethylpiperazine-N′-2-ethanesulfonic acid (HEPES), 1 mM ethylenediamine tetra-acetic acid (EDTA), pH 7.4 with KOH, supplemented with 10e-6M leupeptin (acetyl-leucyl-leucyl-arginal; Sigma L2884), 25 μg/ml bacitracin (Sigma B0125), 1 mM phenylmethylsulfonyl fluoride (PMSF) and 2×10e-6M pepstain A (Sigma)). The cells are then homogenised by 2×15 second bursts in a 1 liter glass Waring blender, followed by centrifugation at 500 g for 20 minutes. […]

human H1 receptor = target: T2, human H1 receptor (Homo sapiens, UniProt P35367); test: Histamine H1 functional antagonist assay (FLIPR, Chinese hamster ovary cells); type: cell-based; conditions: H1 cell line, FLIPR fluorescence, histamine at EC80; Cheng-Prusoff; averages of a number of experiments; read-out: functional pKi (fpKi), histamine H1 functional antagonist assay (converted)
T2 construct: expressed in transfected cells
T2 sequence (P35367 whole entry): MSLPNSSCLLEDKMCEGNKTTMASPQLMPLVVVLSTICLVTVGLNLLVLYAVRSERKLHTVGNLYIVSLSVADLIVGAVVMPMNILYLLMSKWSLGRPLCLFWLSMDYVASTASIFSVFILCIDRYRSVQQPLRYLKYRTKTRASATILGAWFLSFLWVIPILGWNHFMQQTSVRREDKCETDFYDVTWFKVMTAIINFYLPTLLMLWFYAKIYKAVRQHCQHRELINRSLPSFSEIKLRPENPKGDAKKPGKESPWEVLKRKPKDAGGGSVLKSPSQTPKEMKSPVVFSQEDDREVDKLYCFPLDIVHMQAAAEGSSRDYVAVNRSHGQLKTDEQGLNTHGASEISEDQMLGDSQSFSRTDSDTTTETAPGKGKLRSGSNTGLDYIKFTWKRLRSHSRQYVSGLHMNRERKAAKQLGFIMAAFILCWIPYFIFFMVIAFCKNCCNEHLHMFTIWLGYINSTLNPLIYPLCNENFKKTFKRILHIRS
Protocol: (iii) Generation of Histamine H1 Cell Line
The human H1 receptor was cloned using known procedures described in the literature [Biochem. Biophys. Res. Commun. 1994, 201(2), 894]. Chinese hamster ovary cells stably expressing the human Hi receptor were generated according to known procedures described in the literature [Br. J. Pharmacol. 1996, 117(6), 1071].
(II) Histamine H1 Functional Antagonist Assay
The histamine H1 cell line was seeded into non-coated black-walled clear bottom 384-well tissue culture plates in alpha minimum essential medium (Gibco/Invitrogen, cat no. 22561-021), supplemented with 10% dialysed foetal calf serum (Gibco/Invitrogen cat no. 12480-021) and 2 mM L-glutamine (Gibco/Invitrogen cat no 25030-024) and maintained overnight at 5% CO2, 37° C.
Excess medium was removed from each well to leave 10 μl. 30 μl loading dye (250 μM Brilliant Black, 2 μM Fluo-4 diluted in Tyrodes buffer+probenecid (145 mM NaCl, 2.5 mM KCl, 10 mM HEPES, 10 mM D-glucose, 1.2 mM MgCl2, 1.5 mM CaCl2, 2.5 mM probenecid, pH adjusted to 7.40 with NaOH 1.0 M)) was added to each well and the plates were incubated for 60 minutes at 5% CO2, 37° C.
10 μl of test compound, diluted to the required concentration in Tyrodes buffer+probenecid (or 10 μl Tyrodes buffer+probenecid as a control) was added to each well and the plate incubated for 30 min at 37° C., 5% CO2. The plates were then placed into a FLIPR™ (Molecular Devices, UK) to monitor cell fluorescence (λex=488 nm, λEM=540 nm) in the manner described in Sullivan et al. (In: Lambert DG (ed.), Calcium Signaling Protocols, New Jersey: Humana Press, 1999, 125-136) before and after the addition of 10 μl histamine at a concentration that results in the final assay concentration of histamine being EC80.
Functional antagonism is indicated by a suppression of histamine induced increase in fluorescence, as measured by the FLIPR™ system (Molecular Devices). By means of concentration effect curves, functional affinities are determined using standard pharmacological mathematical analysis.

Row | Ki (histamine H3 receptor [1]) | Ki (histamine H3 receptor [2]) | Ki (human H1 receptor) | SMILES
1 | ≤ 10 nM | – | – | CC(C)NC(=O)c1cnc(N2CCC(CC3CCN(C(C)C)CC3)CC2)cn1 [Example E7]
2 | – | ≤ 1 nM | – | Cc1noc(-c2ccc(N3CCC(CC4CCN(C(C)C)CC4)CC3)cn2)n1 [Example E15, 5-(4-{[1-(1-Methylethyl)-4-piperidinyl]methyl}-1-piperidinyl)-2-(3-methyl-1,2,4-oxadiazol-5-yl)pyridine]
3 | ≤ 1 nM | ≤ 1 nM | – | CNC(=O)c1ccc(N2CCC(CC3CCN(C(C)C)CC3)CC2)cn1 [Example E12, N-Methyl-5-(4-{[1-(1-methylethyl)-4-piperidinyl]methyl}-1-piperidinyl)-2-pyridinecarboxamide]
4 | – | ≤ 1 nM | – | O=C(c1ccc(N2CCC(CC3CCN(C4CCC4)CC3)CC2)cc1)C(F)(F)F [Example E31]
5 | – | ≤ 1 nM | – | Cc1noc(-c2ccc(N3CCC(CC4CCN(C(C)C)CC4)CC3)c(F)c2)n1 [Example E14, 1-[2-Fluoro-4-(3-methyl-1,2,4-oxadiazol-5-yl)phenyl]-4-{[1-(1-methylethyl)-4-piperidinyl]methyl}piperidine]
6 | – | ≤ 1 nM | – | CC(C)N1CCC(CC2CCN(c3ccc(C#N)nc3)CC2)CC1 [Example E21, 5-(4-{[1-(1-Methylethyl)-4-piperidinyl]methyl}-1-piperidinyl)-2-pyridinecarbonitrile]
7 | – | ≤ 1 nM | – | Cc1noc(-c2ccc(N3CCC(CC4CCN(C5CCC5)CC4)CC3)cn2)n1 [Example E17, 5-{4-[(1-cyclobutyl-4-piperidinyl)methyl]-1-piperidinyl}-2-(3-methyl-1,2,4-oxadiazol-5-yl)pyridine]
8 | – | ≤ 0.316 nM | – | N#Cc1ccc(N2CCC(CC3CCN(C4CCC4)CC3)CC2)cn1 [Example E22, 5-{4-[(1-Cyclobutyl-4-piperidinyl)methyl]-1-piperidinyl}-2-pyridinecarbonitrile]
9 | – | ≤ 1 nM | – | CNC(=O)c1cnc(N2CCC(CC3CCN(C4CCC4)CC3)CC2)cn1 [Example E8]
10 | – | ≤ 1 nM | – | CC(=O)c1ccc(N2CCC(CC3CCN(C4CCC4)CC3)CC2)cc1 [Example E25, 1-(4-{4-[(1-Cyclobutyl-4-piperidinyl)methyl]-1-piperidinyl}phenyl)ethanone]
11 | – | ≤ 1 nM | > 1000 nM | CNC(=O)c1ccc(N2CCC(CC3CCN(C4CCC4)CC3)CC2)cn1 [Example E11, 5-{4-[(1-Cyclobutyl-4-piperidinyl)methyl]-1-piperidinyl}-N-methyl-2-pyridinecarboxamide]
12 | ≤ 1 nM | – | > 1000 nM | CC(C)NC(=O)c1cnc(N2CCC(CC3CCN(C4CCC4)CC3)CC2)cn1 [Example E6, 5-{4-[(1-Cyclobutyl-4-piperidinyl)methyl]-1-piperidinyl}-N-(1-methylethyl)-2-pyrazinecarboxamide]
13 | – | ≤ 0.316 nM | – | Cc1noc(-c2ccc(N3CCC(CC4CCN(C(C)C)CC4)CC3)cc2F)n1 [Example E16, 1-[3-fluoro-4-(3-methyl-1,2,4-oxadiazol-5-yl)phenyl]-4-{[1-(1-methylethyl)-4-piperidinyl]methyl}piperidine]
14 | – | ≤ 1 nM | – | CC(=O)c1ccc(N2CCC(CC3CCN(C4CCC4)CC3)CC2)nc1 [Example E29]
15 | – | ≤ 1 nM | > 1000 nM | CCNC(=O)c1cnc(N2CCC(CC3CCN(C4CCC4)CC3)CC2)cn1 [Example E9, 5-{4-[(1-cyclobutyl-4-piperidinyl)methyl]-1-piperidinyl}-N-ethyl-2-pyrazinecarboxamide]
16 | – | ≤ 0.316 nM | – | CCN1CCC(CC2CCN(c3ccc(-c4nc(C)no4)cc3)CC2)CC1 [Example E18]
17 | – | ≤ 1 nM | – | FC(F)(F)c1ccc(N2CCC(CC3CCN(C4CCC4)CC3)CC2)nn1 [Example E34]
18 | – | ≤ 0.316 nM | – | CC(=O)c1ccc(N2CCC(CC3CCN(C4CCC4)CC3)CC2)cn1 [Example E24, 1-(5-{4-[(1-Cyclobutyl-4-piperidinyl)methyl]-1-piperidinyl}-2-pyridinyl)ethanone]
19 | ≤ 0.316 nM | – | – | Cc1noc(-c2ccc(N3CCC(CC4CCN(C(C)C)CC4)CC3)cc2)n1 [Example E13, 1-(1-Methylethyl)-4-({1-[4-(3-methyl-1,2,4-oxadiazol-5-yl)phenyl]-4-piperidinyl}methyl)piperidine]
20 | – | ≤ 1 nM | – | CCN1CCC(CC2CCN(c3ccc(C(C)=O)cc3)CC2)CC1 [Example E27]
21 | – | ≤ 1 nM | – | CC(=O)c1ccc(N2CCC(CC3CCN(C(C)C)CC3)CC2)cc1 [Example E26]
22 | – | ≤ 10 nM | > 1000 nM | CC(C)N1CCC(CC2CCN(c3cnc(C(F)(F)F)nc3)CC2)CC1 [Example E36, 5-(4-{[1-(1-Methylethyl)-4-piperidinyl]methyl}-1-piperidinyl)-2-(trifluoromethyl)pyrimidine]
23 | – | ≤ 1 nM | – | CC(=O)c1ccc(N2CCC(CC3CCN(C(C)C)CC3)CC2)cn1 [Example E23, 1-{[5-(4-[1-(1-Methylethyl)-4-piperidinyl]methyl}-1-piperidinyl)-2-pyridinyl]ethanone]
